Results reported in US20030134901A1, “Lipoxin compounds and their use in treating cell proliferative disorders” (priority 1993, published 2003).

Legend:
[1] = system: PLD activity in human PMN; test: PLD activity (PEt formation) in PMN; assay type: cell-based; details: biphasic concentration dependence
Procedure: PMN, platelet and RBC isolation from peripheral blood. Human PMN were obtained by the modified Böyum method (Böyum, A. (1968) Scan. J. Clin. Lab. Invest. 21:77) from fresh heparinized blood after venipuncture of healthy normal volunteers. Suspensions in PBS were monitored for cell number and viability by their ability to exclude trypan blue both exceeding 98%. Red blood cells were obtained from 10 ml of heparinized blood after three centrifugations in PBS (2,500 rpm, 10 min at 21° C.). Blood drawn in acidic citrate dextrose (9:1, v/v) was used to isolate platelets as previously described (Serhan, C. N. and Sheppard, K.-A. (1990) J. Clin. Invest. 85:772). PLD activity. Human PMN and HL-60 cells (50×10^6 cells/ml) prepared as above were incubated with ^3H-myristic acid or ^3H-palmitic acid (8 μCi/50×10^6 cells) for 40-60 min at 37° C. in PBS. […] Incubations were carried out at 37° C. (10 ×10^6 cells/ml PBS). […] M. et al. (1989) J. Biol. Chem. 264:17069. At indicated times, incubations were stopped by adding 3.5 ml of ice cold CHCl3/MeOH (2/5, v/v) containing 1-^14C-arachidonic acid (5,000 cpm) used here as internal standard to quantitate extraction recoveries. Samples were extracted using a modified Bligh and Dyer extraction as in (Serhan, C. N. and Sheppard, K. -A. (1990) J. Clin. Invest. 85:772). Organic phases, concentrated in 50 μL of CHCl3/MeOH (8/2, v/v), were spotted onto linear […] TLC plates developed with the organic phase of ethyl acetate[…][…] (110/50/20/100, v/v/v/v) for 50 min ([…]. et al.(1989) J. Biol. Chem. 264:17069). […] Regions corresponding to PA, PEt, and internal standards were scraped and quantified by liquid scintillation counting. […] In these experiments, PA was resolved using ethyl acetate[…][…]) as solvent system ([…]. et al. (1989) Anal. […] Impact of IAP and staurosporine on LXA4-induced PLD activity. PLD activity assays, performed as described (vide supra), were preceded by cell exposure to either IAP or staurosporine. […]

A549 cells = test: A549 cell proliferation, MTT assay; assay type: cell-based, human
Method in brief: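 A549 cells, ~2000/well, given compounds at 5-1000 nM or 0.15% ethanol vehicle after 24 h, quadruplicates, up to 96 h at 37° C. MTT added 4 h, dye extracted in acidified isopropanol and read at 570 nm; MTT signal linear with cell number.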

`CCCCC[C@H](O)/C=C/C=C\C=C\C=C\[C@@H](O)[C@@H](O)CCCC(=O)O` [LXA4, (5S, 6R, 15S)-trihydroxy-7E, 9E, 11Z, 13E-eicosatetraenoic acid] was tested, and the “concentration of second peak of activity, PEt formation” value [1] was 10^−7 M, the “inhibition of A549 cell proliferation over time” value (A549 cells; 1 μM, after 72 and 96 hours of treatment) was “inhibited A549 cell proliferation” and the inhibition at 0.1 µM (A549 cells; Homo sapiens, A549, 10^−7 M, 72 hours at 37° C., mean ± SEM, 3 to 7 experiments) was 16.3 ± 5.2%. The IC50 (A549 cells; Homo sapiens, A549, MTT assay, 72 hours, read-out: half maximum inhibition (IC50) of A549 cell proliferation) was roughly 80 nM.
